Data published in patent publication US6544502B2, “Skin treatment with a water soluble antibiotic dissolved in an electrolyzed water” (Wasatch Pharmaceutical Inc., priority 1992, dated 2003).

Experiments:
[1] = Stability of antibiotic in aqueous solution; assay type: physicochemical; settings: hydrate salt in water
[2] = Solubility of antibiotic (water, lipoid); assay type: physicochemical

lipoid solubility [2]: high degree of lipoid solubility
solubility in water [2]: readily soluble in water
Substance: Doxycycline hyclate
stability of water soluble salt [1]: no pH sensitivity or breakdown into the inactive ingredients
